Here are results for two substances from patent US20250283871A1, “COMPOSITIONS AND METHODS FOR MODULATING THE INTERACTION BETWEEN SS18-SSX FUSION ONCOPROTEIN AND NUCLEOSOMES” (Dana-Farber Cancer Institute, Inc., priority 2020, published 2025).

Data set [1] has as its system unmodified or H2A K119Ub-modified nucleosomes. Kind of data set: Fluorescence polarization assay. It is filed as binding. To be noted: H2A K119Ub versus unmodified nucleosomes.
Data set [2] concerns BAF complex subunits and histone proteins. Kind of data set: Mass spectrometry proteomics of purified HA-SS18 WT and HA-SS18-SSX1 complexes (Tables 5A-5E). Further details: species or system human. To be noted: MS of HA purifications.
Protocol: Confluent plates were scraped to remove cells and cells were washed with PBS. Cell suspension was spun down by centrifugation at 3000 rpm for 5 minutes at 4° C. and pellets were resuspended in hypotonic buffer (10 mM Tris HCl pH 7.5, 10 mM KCl, 1.5 mM MgCL2, 1 mM DTT, 1 mM PMSF) and incubated on ice for 5 minutes. Following incubation, cell suspension was spun down by centrifugation at 5000 rpm for 5 minutes at 4° C., and pellets were resuspended in 5× volume of fresh hypotonic buffer (with protease inhibitor cocktail, Roche C756U27) and then cells were homogenized using a Dounce homogenizer (glass). Cell suspension was layered onto hypotonic buffer sucrose cushion made with 30% sucrose w/v, spun down by centrifugation at 5000 rpm for 1 hour at 4° C. followed by removal of the cytosol-containing layer. The nuclei containing pellets were resuspended in high salt buffer (50 mM Tris HCl pH 7.5, 300 mM KCl, 1 mM MgCL2, 1 mM EDTA, 1 mM, 1% NP40, 1 mM DTT, 1 mM PMSF and protease inhibitor cocktail) and then the homogenate rotated for 1 hour at 4° C. Homogenates were then spun down by centrifugation at 20,000 rpm for 1 hour at 4° C. in a SW32Ti rotor (Beckman Coulter). The soluble proteins, consisting of the nuclear extract (NE) fraction, was separated from the insoluble chromatin pellet, consisting of the chromatin (CHR) fraction. […]
In data set [3] the test system is recombinant mononucleosome. As to the kind of experiment: ATPase assay (ADP-Glo). It is filed as biochemical. To be noted: 0-40 min. As to the method:
ATPase consumption assays were performed using the ADP-Glo Kinase Assay kit (Promega). The same conditions as the REAA nucleosome remodeling assay described above were used. Following incubation with desired substrates for 40 min at 37° C., 1× volume of ADP-Glo Reagent was used to quench the reaction and incubated at RT for 40 min. 2× volume of the Kinase Detection Reagent was then added and incubated at RT for 1 h. Luminescence readout was recorded. Substrates used for this assay were purified recombinant mononucleosome (EpiDyne Nucleosome Remodeling Assay Substrate ST601-GATC1, EpiCypher, Cat #16-4101). Nuclear extract material was used at 150ug for each ARID1A-IP using ARID1A antibody (Cell Signaling, Cat #12354S).

Data set [4] deals with nucleosomes. Kind of data set: Restriction enzyme accessibility assay (REAA) nucleosome remodeling assay. In kind it is biochemical. To be noted: 37 degrees C, 0-40 min. As for the experimental part:
SMARCA4 (BRG1) levels of the ammonium sulfate nuclear extracts were normalized via BCA protein quantification and Silver Stain analyses for HA-SS18 and HA-SS18-SSX conditions. Protein was diluted for final reaction concentration of 150 μg/mL in REAA buffer (20 mM HEPES, pH 8.0, 50 mM KCl, 5 mM MgCl2) containing 0.1 mg/mL BSA, 1 mM DTT, 20 nM nucleosomes (EpiDyne Nucleosome Remodeling Assay Substrate ST601-GATC1, EpiCypher). The REAA mixture was incubated at 37° C. for 10 min, and reaction was initiated using 1-2 mM ATP (Ultrapure ATP, Promega) and 0.005 U/mL DpnJJ Restriction Enzyme (New England Biolabs). The REAA reaction mixture was quenched with 20-24 mM EDTA and placed on ice. Proteinase K (Ambion) was added at 100 mg/mL for 30-60 min, followed by either AMPure bead DNA purification and D1000 HS DNA ScreenTape Analysis (Agilent) or mixing with GelPilot® Loading Dye (QIAGEN) and loading onto 8% TBE gel (Novex 8% TBE Gels, Thermo Fisher). TBE gels were stained with either SYBR®-Safe (Invitrogen) or Syto®-60 Red Fluorescent Nucleic Acid Stain (Invitrogen), followed by imaging with UV light on an Alpha Innotech AlphaImager™ 2200 and/or with 652 nm light excitation on a Li-Cor Odyssey® CLx imaging system (LI-COR).

Data set [5] has as its system H2A K119Ub-modified nucleosomes. As to the kind of experiment: Pull down of endogenous HA-SS18- or HA-SS18-SSX-bound BAF complexes with WT or H2A K119Ub-modified nucleosomes. In kind it is binding. To be noted: endogenously purified complexes. As to the method: Difference is the score calculated between SYO1 (SS18-SSX+) cells and SW982 cells (negative for fusion, histologic mimic). mSWI/SNF, PRC1, PRC2 members are shown. […] H3 immunoblot is used for assessment of nucleosome binding to GST-SSX. […] SMARCA4 and H3 immunoblots are shown. FIG. 11G has two panels. […] Peptides were incubated −/+presence of USP2 treatment. Error bars=st.dev. […] H3 immunoblot is used for assessment of nucleosome binding to GST-SSX. […] Data for GST-SSX with WT nucleosomes and H2A K119Ub nucleosomes are shared between FIG. 11E.
SS cell lines containing the SS18-SSX fusion oncoprotein are highlighted in red. […] Difference is the score calculated between SYO1, Yamato-SS, SCS241 (SS18-SSX+) cells and SW982 cells (negative for fusion, histologic mimic). Blue indicates enriched for dependency. mSWI/SNF, PRC1, PRC2 members are shown. […] Synovial sarcoma cell lines are indicated in pink; all other cell lines are represented in gray. […] (Project DRIVE; available on the World Wide Web at oncologynibr.shinyapps.io/drive/). SS cell lines containing the SS18-SSX fusion oncoprotein are highlighted in red. […] H3 immunoblot is used for assessment of nucleosome binding to GST-SSX. […] SMARCA4 and H3 immunoblots are shown. […] Identified proteins labeled (Left). WB of the samples on the right indicating presence of histone H3 (Right).

The subject of data set [6] is histone proteins. Kind of data set: Purification of mSWI/SNF (BAF) complexes from NE and CHR fractions, colloidal blue staining. Further details: species or system human. As to the method:
Stable HEK293T cell lines expressing by lentiviral infection HA-SS18 WT or HA-SS18-SSX1 were grown in 150 mm dishes. Complexes were purified using methods previously described with a few modifications (Mashtalir et al. (2014) Mol. Cell 54:392-406). Confluent plates were scraped to remove cells and cells were washed with PBS. Cell suspension was spun down by centrifugation at 3000 rpm for 5 minutes at 4° C. and pellets were resuspended in hypotonic buffer (10 mM Tris HCl pH 7.5, 10 mM KCl, 1.5 mM MgCL2, 1 mM DTT, 1 mM PMSF) and incubated on ice for 5 minutes. Following incubation, cell suspension was spun down by centrifugation at 5000 rpm for 5 minutes at 4° C., and pellets were resuspended in 5× volume of fresh hypotonic buffer (with protease inhibitor cocktail, Roche C756U27) and then cells were homogenized using a Dounce homogenizer (glass). Cell suspension was layered onto hypotonic buffer sucrose cushion made with 30% sucrose w/v, spun down by centrifugation at 5000 rpm for 1 hour at 4° C. followed by removal of the cytosol-containing layer. The nuclei containing pellets were resuspended in high salt buffer (50 mM Tris HCl pH 7.5, 300 mM KCl, 1 mM MgCL2, 1 mM EDTA, 1 mM, 1% NP40, 1 mM DTT, 1 mM PMSF and protease inhibitor cocktail) and then the homogenate rotated for 1 hour at 4° C. […]

Consider “fluoro-labeled SSX: fluorescently-labeled SSX1 (78aa), in place of GST tag”, for which the “binding affinity by fluorescence polarization” value in data set [1] is “higher binding affinity to H2A K119Ub-decorated nucleosomes compared to unmodified nucleosomes”.
Turning to “SS18-SSX-bound BAF complexes: BAF complexes purified via HA-tagged SS18-SSX expressed in HEK-293T cells”, the “peptides corresponding to the H2A K119Ub mark captured” value in data set [2] was “captured only in the purifications of SS18-SSX-bound complexes”. Further, in data set [3], the ATPase activity entry is reported as “slightly lower than that of WT SS18-bound complexes”. Further, the remodeling efficiency result in data set [4] was “slightly lower than that of WT SS18-bound complexes”. For the same substance, the “binding of H2A K119Ub-modified versus unmodified nucleosomes by BAF complexes” value in data set [5] is reported as “enriched for binding of recombinant H2A K119Ub-modified nucleosomes over unmodified nucleosomes”. Besides, in data set [6], the “core histone proteins captured” value was “captured near-stoichiometric amounts of core histone proteins H2A, H2B, H3, and H4”.
